Patent US7163952B2, “Azole compound and medicinal use thereof” (Japan Tobacco Inc., priority 2001, dated 2007)

melting point | Structure (SMILES)
105 to 108 °C | O=C(O)c1ccc(CN(CC2CCCCC2)c2nc(-c3nc4ccc(OCCc5ccccc5)cc4o3)cs2)cc1 [Example 221, 4-((N-cyclohexylmethyl-N-(4-(6-phenethyloxy-2-benzooxazolyl)-2-thiazolyl)amino)methyl)benzoic acid]
146 to 147 °C | CN(CCCCc1ccccc1)c1ccc(-c2csc(N(C)Cc3ccc(C(=O)O)cc3)n2)cc1 [Example 222, 4-((N-methyl-N-(4-(4-(N-methyl-N-(4-phenylbutyl)amino)phenyl)-2-thiazolyl)amino)methyl)benzoic acid]
174 to 176 °C | CN(CCC1Cc2ccccc2C1)c1ccc(-c2csc(N(C)Cc3ccc(C(=O)O)cc3)n2)cc1 [Example 223, 4-((N-(4-(4-(N-(2-(2-indanyl)ethyl)-N-methylamino)phenyl)-2-thiazolyl)-N-methylamino)methyl)benzoic acid]
151 to 152 °C | CN(CCc1ccc(Cl)c(Cl)c1)c1ccc(-c2csc(N(C)Cc3ccc(C(=O)O)cc3)n2)cc1 [Example 224, 4-((N-(4-(4-(N-(2-(3,4-dichlorophenyl)ethyl)-N-methylamino)phenyl)-2-thiazolyl)-N-methylamino)methyl)benzoic acid]
127 to 128 °C | CN(CCCc1ccccc1)c1ccc(-c2csc(N(C)Cc3ccc(C(=O)O)cc3)n2)cc1 [Example 225, 4-((N-methyl-N-(4-(4-(N-methyl-N-(3-phenylpropyl)amino)phenyl)-2-thiazolyl)amino)methyl)benzoic acid]
157 to 159 °C | CN(Cc1ccc(C2CCCCC2)cc1)c1ccc(-c2csc(N(C)Cc3ccc(C(=O)O)cc3)n2)cn1 [Example 226, 4-((N-(4-(6-(N-(4-cyclohexylbenzyl)-N-methylamino)-3-pyridyl)-2-thiazolyl)-N-methylamino)methyl)benzoic acid]
172 to 173 °C | Cc1nc(N(C)Cc2ccc(C3CCCCC3)cc2)sc1-c1csc(N(C)Cc2ccc(C(=O)O)cc2)n1 [Example 227, 4-((N-(2′-(N-(4-cyclohexylbenzyl)-N-methylamino)-4′-methyl-4,5′-bithiazolyl-2-yl)-N-methylamino)methyl)benzoic acid]
155 to 157 °C | CN(Cc1ccc(C2CCCCC2)cc1)c1cc(-c2csc(N(C)Cc3ccc(C(=O)O)cc3)n2)cc(Cl)n1 [Example 228, 4-((N-(4-(2-chloro-6-(N-(4-cyclohexylbenzyl)-N-methylamino)-4-pyridyl)-2-thiazolyl)-N-methylamino)methyl)benzoic acid]
176 to 177 °C | CN(Cc1ccc(CC(C)(C)C)cc1)c1ccc(-c2csc(N(C)Cc3ccc(C(=O)O)cc3)n2)cc1 [Example 229, 4-((N-(4-(4-(N-(4-(2,2-dimethylpropyl)benzyl)-N-methylamino)phenyl)-2-thiazolyl)-N-methylamino)methyl)benzoic acid]
250 °C | CN(Cc1ccc(C(=O)O)cc1)c1nc(-c2ccc3[nH]c(-c4ccc(C5CCCCC5)cc4)nc3c2)cs1 [Example 231, 4-((N-(4-(2-(4-cyclohexylphenyl)-1H-benzoimidazol-5-yl)-2-thiazolyl)-N-methylamino)methyl)benzoic acid]
144 to 145 °C | CN(Cc1ccc(C(=O)O)cc1)c1nc(-c2cnc(N(C)Cc3ccc(C4CCCCC4)cc3)c(Cl)c2)cs1 [Example 232, 4-((N-(4-(5-chloro-6-(N-(4-cyclohexylbenzyl)-N-methylamino)-3-pyridyl)-2-thiazolyl)-N-methylamino)methyl)benzoic acid]
166 to 167 °C | CN(Cc1ccc(C(C)(C)C)cc1)c1ccc(-c2csc(N(C)Cc3ccc(C(=O)O)cc3)n2)cc1 [Example 233, 4-((N-(4-(4-(N-(4-tert-butylbenzyl)-N-methylamino)phenyl)-2-thiazolyl)-N-methylamino)methyl)benzoic acid]
180 to 181 °C | CN(Cc1ccc(C(F)(F)F)cc1)c1ccc(-c2csc(N(C)Cc3ccc(C(=O)O)cc3)n2)cc1 [Example 234, 4-((N-methyl-N-(4-(4-(N-methyl-N-(4-trifluoromethylbenzyl)amino)phenyl)-2-thiazolyl)amino)methyl)benzoic acid]
162 °C | CN(CCc1ccc(C(C)(C)C)cc1)c1ccc(-c2csc(N(C)Cc3ccc(C(=O)O)cc3)n2)cc1 [Example 235, 4-((N-(4-(4-(N-(2-(4-tert-butylphenyl)ethyl)-N-methylamino)phenyl)-2-thiazolyl)-N-methylamino)methyl)benzoic acid]
158 to 159 °C | CN(CCc1ccc(C(F)(F)F)cc1)c1ccc(-c2csc(N(C)Cc3ccc(C(=O)O)cc3)n2)cc1 [Example 236, 4-((N-methyl-N-(4-(4-(N-methyl-N-(2-(4-trifluoromethylphenyl)ethyl)amino)phenyl)-2-thiazolyl)amino)methyl)benzoic acid]
164 to 167 °C | CN(C)c1ccc(CCN(C)c2ccc(-c3csc(N(C)Cc4ccc(C(=O)O)cc4)n3)cc2)cc1 [Example 237, 4-((N-(4-(4-(N-(2-(4-dimethylaminophenyl)ethyl)-N-methylamino)phenyl)-2-thiazolyl)-N-methylamino)methyl)benzoic acid]
212 to 213 °C | CN(CCc1ccc(N2CCOCC2)cc1)c1ccc(-c2csc(N(C)Cc3ccc(C(=O)O)cc3)n2)cc1 [Example 238, 4-((N-methyl-N-(4-(4-(N-methyl-N-(2-(4-morpholinophenyl)ethyl)amino)phenyl)-2-thiazolyl)amino)methyl)benzoic acid]
159 to 163 °C | CN(Cc1ccc(C(=O)O)cc1)c1nc(-c2ccc(CN3CCN(c4ccccc4)CC3)cc2)cs1 [Example 239, 4-((N-methyl-N-(4-(4-(4-phenyl-1-piperazinylmethyl)phenyl)-2-thiazolyl)amino)methyl)benzoic acid]
130 to 135 °C | CN(Cc1ccc(C(=O)O)cc1)c1nc(-c2ccc(CN3CCN(Cc4ccccc4)CC3)cc2)cs1 [Example 240, 4-((N-(4-(4-(4-benzyl-1-piperazinylmethyl)phenyl)-2-thiazolyl)-N-methylamino)methyl)benzoic acid]
147 to 148 °C | CCC(CC)c1ccc(CN(C)c2ccc(-c3csc(N(C)Cc4ccc(C(=O)O)cc4)n3)cc2)cc1 [Example 241, 4-((N-(4-(4-(N-(4-(1-ethylpropyl)benzyl)-N-methylamino)phenyl)-2-thiazolyl)-N-methylamino)methyl)benzoic acid]
149 to 150 °C | CN(Cc1ccc(C(=O)O)cc1)c1nc(-c2ccc(N(C)Cc3ccc(C4CCCCC4)cc3)c(Cl)c2)cs1 [Example 242, 4-((N-(4-(3-chloro-4-(N-(4-cyclohexylbenzyl)-N-methylamino)phenyl)-2-thiazolyl)-N-methylamino)methyl)benzoic acid]
122 to 127 °C | CN(Cc1ccc(C(=O)O)cc1)c1nc(-c2ccc(CN3CCN(C(=O)OCc4ccccc4)CC3)cc2)cs1 [Example 243, benzyl 4-(4-(2-(N-(4-carboxybenzyl)-N-methylamino)-4-thiazolyl)benzyl)-piperazine-1-carboxylate]
153 to 154 °C | CN(Cc1ccc(C(=O)O)cc1)c1nc(-c2ccc(N(C)Cc3ccc(C(C)(C)C)cc3)c(Cl)c2)cs1 [Example 244, 4-((N-(4-(4-(N-(4-tert-butylbenzyl)-N-methylamino)-3-chlorophenyl)-2-thiazolyl)-N-methylamino)methyl)benzoic acid]
132 to 134 °C | CC(C)CSc1ccc(CN(C)c2ccc(-c3csc(N(C)Cc4ccc(C(=O)O)cc4)n3)cc2)cc1 [Example 245, 4-((N-(4-(4-(N-(4-isobutylsulfanylbenzyl)-N-methylamino)phenyl)-2-thiazolyl)-N-methylamino)methyl)benzoic acid]
209 °C (dec.) | CN(Cc1ccc(C2CCCCC2)cc1)c1ccc(-c2csc(NCc3ccc(C(=O)O)cc3)n2)cc1 [Example 247, 4-((4-(4-(N-(4-cyclohexylbenzyl)-N-methylamino)phenyl)-2-thiazolylamino)methyl)benzoic acid]
104 to 105 °C | CN(Cc1ccc(C(=O)OC2OC(=O)c3ccccc32)cc1)c1nc(-c2ccc(OCc3ccc(C4CCCCC4)cc3)cc2)cs1 (centres unmarked) [Example 248, 3-oxo-1,3-dihydroisobenzofuran-1-yl 4-((N-(4-(4-(4-cyclohexylbenzyloxy)phenyl)-2-thiazolyl)-N-methylamino)methyl)benzoate]
117 to 118 °C | CCOC(=O)c1ccc(CN(C)c2nc(-c3ccc(OCc4ccc(C5CCCCC5)cc4)cc3)cs2)cc1 [Example 249, ethyl 4-((N-(4-(4-(4-cyclohexylbenzyloxy)phenyl)-2-thiazolyl)-N-methylamino)methyl)benzoate]
260 °C | CN(c1ccc(C(=O)[O-])cc1)c1nc(-c2ccc(NCc3ccc(C4CCCCC4)cc3)cc2)cs1.[Na+] [Example 263, sodium 4-(N-(4-(4-(4-cyclohexylbenzylamino)phenyl)-2-thiazolyl)-N-methylamino)benzoate]
88 to 90 °C | CN(Cc1ccc(C(=O)OCOC(=O)C(C)(C)C)cc1)c1nc(-c2ccc(OCc3ccc(C4CCCCC4)cc3)cc2)cs1 [Example 268, 2,2-dimethylpropionyloxymethyl 4-((N-(4-(4-(4-cyclohexylbenzyloxy)phenyl)-2-thiazolyl)-N-methylamino)methyl)benzoate]
99 to 101 °C | CCOC(=O)OC(C)OC(=O)c1ccc(CN(C)c2nc(-c3ccc(OCc4ccc(C5CCCCC5)cc4)cc3)cs2)cc1 (centres unmarked) [Example 269, 1-ethoxycarbonyloxyethyl 4-((N-(4-(4-(4-cyclohexylbenzyloxy)phenyl)-2-thiazolyl)-N-methylamino)methyl)benzoate]

Structure (SMILES) | melting point
CC(=O)OC(C)OC(=O)c1ccc(CN(C)c2nc(-c3ccc(OCc4ccc(C5CCCCC5)cc4)cc3)cs2)cc1 (centres unmarked) [Example 250, 1-acetoxyethyl 4-((N-(4-(4-(4-cyclohexylbenzyloxy)phenyl)-2-thiazolyl)-N-methylamino)methyl)benzoate] | 116 to 117 °C
CN(Cc1ccc(C(=O)OCC(=O)OC(C)(C)C)cc1)c1nc(-c2ccc(OCc3ccc(C4CCCCC4)cc3)cc2)cs1 [Example 267, tert-butoxycarbonylmethyl 4-((N-(4-(4-(4-cyclohexylbenzyloxy)phenyl)-2-thiazolyl)-N-methylamino)methyl)benzoate] | 122 to 123 °C
